Data published in US10092648B2, “Selective glucagon-like-peptide-2 (GLP-2) analogues” (Zealand Pharma A/S, priority 2006, dated 2018).
“And” between values parts separate entries of the source, which are not always exact repeats. Equal values may be shown once.

Assays:
[1] = system: male C57BL mice; assay: In vivo stimulation of stomach growth, 200 nmol/kg (Example 12)
Protocol: The effects of the test compounds according to the invention were determined based on the ability of the peptides to selectively increase stomach mass, relative to vehicle control. The ability of the present compounds (ZP2395, ZP2396, ZP2400, ZP2412, ZP2394 and ZP2401) to selectively stimulate stomach mass, relative to colon mass was determined in male C57BL mice. Individual groups (n=6-10) of mice were given 200 nmol/kg of each compound, s.c, once daily for three consecutive days. For comparison purposes other groups of animals were given either an equimolar dose of [[…]]GLP-2 or vehicle (phosphate buffered saline, pH 7.4) in the same dosing regimen. Twenty-four hours after the last dose of compound had been given the mice were sacrificed and the stomach and small intestine (from the pylorus to the ileocaecal junction) emptied and weighed. To correct for slight difference in body weight (BW), the organ mass of the stomach is presented relative to BW. […] To evaluate the differential growth pattern induced by ZP compounds, compared to [[…]]GLP-2, on the stomach, the stomach-colon sensitivity index of compound X was calculated as: (Stomach/Colon)x/Stomach/(Colon)[[…]]GLP-2% Compounds with a stomach/colon sensitivity greater than or equal to 1.05 were considered relatively selective for the stomach.

[2] = system: male C57BL mice; assay: In vivo stimulation of intestinal growth, 200 nmol/kg (Example 11); details: for Sensitivity index Si/Colon: relative to 1559
Protocol: The ability of further compounds to selectively stimulate small intestinal mass, relative to colon mass was determined in male C57BL mice. A similar protocol was used to that described above in Example 10 except that 200 nmol/kg of each compound was administered per day. Thus, individual groups (n=6-10) of mice were given 200 nmol/kg of each compound, s.c, once daily for three consecutive days. Other groups of animals were given either an equimolar dose of [[…]]GLP-2 (reference compound) or vehicle (phosphate buffered saline, pH 7.4; negative controls) in the same dosing regimen. Twenty-four hours after the last dose of compound the mice were sacrificed and the stomach, small intestine and the colon emptied and weighed.

[3] = 200 nmol/kg s.c. once daily for 3 days
[4] = 200 nmol/kg s.c. once daily for 3 days, relative to 1559
[5] = colon weight relative to body weight, relative to ZP1559
[6] = small intestine weight relative to body weight, relative to ZP1559

Row | Substance | Preferential stimulation of epithelial growth in the stomach (summary) [1, 3] | Selectivity for stomach mass relative to colon mass (FIG. 7) [1, 3] | Sto-BW, compared to 1559 in % [1, 3] [%] | Sensitivity index Stomach/Co [1, 4] | Sensitivity index Stomach/Co ([1]; ratio Stomach-BW / Colon-BW) | Colon-BW, compared to 1559 in % [2, 3] [%] | SI-BW, compared to 1559 in % [2, 3] [%] | Sensitivity index Si/Colon [2, 3] | Colon-BW, compared to 1559 in % [2, 5] [%] | SI-BW, compared to 1559 in % [2, 6] [%] | Organ selectivity (FIG. 8, unselective compounds) [2, 3] | Preferential stimulation of epithelial growth in the small intestine (summary) [2, 3] | Selectivity for small intestinal mass relative to colon mass (FIG. 6) [2, 3]
1 | H-HGEGSFSDELFTILEFLAASDFISWLISTKITDKKKKKK-NH2 [ZP2396] | preferentially stimulating epithelial growth in the stomach | selectively increase stomach mass, relative to colon mass | 117 | 1.15 | 1.16 and 1.15 | 102 | 104 | 1.02 | 102 | 104 |  |  | 
2 | H-HGEGSFSDELATILESLAAADFIAWLIATKITD-NH2 [ZP2414] |  | selectively increase stomach mass, relative to colon mass | 110 | 1.04 |  | 106 | 105 | 0.99 |  |  | unselective for the small intestine, colon or stomach |  | 
3 | H-HGEGSFSDELSTILEALAAADFIAWLIATKITD-NH2 [ZP2420] |  |  | 90 | 0.89 | 0.89 | 101 | 112 | 1.11 | 101 | 112 |  | preferentially stimulating epithelial growth in the small intestine | selectively increase small intestinal mass, relative to colon mass
4 | H-HGEGSFSDELLTILELLAASDFISWLISTKITD-NH2 [ZP2400] | preferentially stimulating epithelial growth in the stomach | selectively increase stomach mass, relative to colon mass | 111 | 1.05 | 1.05 | 106 | 106 | 1.00 | 106 | 106 |  |  | 
5 | H-HGEGSFSDELATILEALAASDFIAWLIATKITD-NH2 [ZP2417] |  |  | 90 | 0.85 | 0.85 | 106 | 119 | 1.12 | 106 | 119 |  | preferentially stimulating epithelial growth in the small intestine | selectively increase small intestinal mass, relative to colon mass
6 | H-HGEGSFSDELSTILESLAAADFIAWLIATKITDKKKKKK-NH2 [ZP2403] |  |  | 107 | 0.98 |  | 109 | 110 | 1.01 |  |  | unselective for the small intestine, colon or stomach |  | 
7 | H-HGEGSFSDELKTILESLAAADFIEWLIQTKITDKKKKKK-NH2 [ZP2379] |  |  | 99 | 1.02 |  | 97 | 88 | 0.91 |  |  | unselective for the small intestine, colon or stomach |  | 
8 | H-HGEGSFSDELLTILELLAASDFISWLISTKITDKKKKKK-NH2 [ZP2394] | preferentially stimulating epithelial growth in the stomach | selectively increase stomach mass, relative to colon mass | 109 | 1.14 | 1.14 | 96 | 105 | 1.09 | 96 | 105 |  |  | 
9 | H-HGEGSFSDELATILESLAAADFISWLIATKITDKKKKKK-NH2 [ZP2413] |  |  | 108 | 0.92 |  | 117 | 116 | 0.99 |  |  | unselective for the small intestine, colon or stomach |  | 
10 | H-HGEGSFSDELLTILELLAAADFIAWLIATKITDKKKKKK-NH2 [ZP2412] | preferentially stimulating epithelial growth in the stomach | selectively increase stomach mass, relative to colon mass | 106 | 1.07 | 1.07 | 99 | 94 | 0.95 | 99 | 94 |  |  | 
11 | H-HGEGSFSDELATILESLAASDFISWLISTKITDKKKKKK-NH2 [ZP2386] |  |  | 95 | 0.86 |  | 111 | 113 | 1.02 |  |  | unselective for the small intestine, colon or stomach |  | 
12 | H-HGEGSFSDELATILEALAAADFISWLIATKITDKKKKKK-NH2 [ZP2411] |  |  | 106 | 0.95 | 0.95 | 111 | 117 | 1.05 | 111 | 117 |  | preferentially stimulating epithelial growth in the small intestine | selectively increase small intestinal mass, relative to colon mass
13 | H-HGEGSFSDELATILEALAAADFISWLIATKITD-NH2 [ZP2418] |  |  | 91 | 0.91 | 0.91 | 100 | 117 | 1.17 | 100 | 117 |  | preferentially stimulating epithelial growth in the small intestine | selectively increase small intestinal mass, relative to colon mass
14 | H-HGEGSFSDELATILEALAAADFIAWLISTKITD-NH2 [ZP2397] |  |  | 109 | 1.08 | 1.08 | 101 | 122 | 1.21 | 101 | 122 |  | preferentially stimulating epithelial growth in the small intestine | selectively increase small intestinal mass, relative to colon mass
15 | H-HGEGSFSDELLTILELLAALDFIAWLIATKITDKKKKKK-NH2 [ZP2416] |  | selectively increase stomach mass, relative to colon mass | 96 | 1.04 |  | 92 | 89 | 0.97 |  |  | unselective for the small intestine, colon or stomach |  | 
16 | H-HGEGSFSDELATILEALAASDFISWLISTKITDKKKKKK-NH2 [ZP2381] |  |  | 92 | 0.88 | 0.88 | 104 | 123 | 1.18 | 104 | 123 |  | preferentially stimulating epithelial growth in the small intestine | selectively increase small intestinal mass, relative to colon mass
17 | H-HGEGSFSDELSTILEALAASDFISWLISTKITD-NH2 [ZP2398] |  |  | 102 | 1.05 | 1.05 | 97 | 108 | 1.11 | 97 | 108 |  | preferentially stimulating epithelial growth in the small intestine | selectively increase small intestinal mass, relative to colon mass
